The values that follow come from ChEMBL document CHEMBL1125116 (J Med Chem, 1990).

This experiment has as its target D(2) dopamine receptor (Rattus norvegicus, UniProt P61169). Kind of experiment: Evaluated in vitro for the affinity towards Dopamine receptor D2 of rat striatal tissue.

Chain of D(2) dopamine receptor (P61169 whole entry): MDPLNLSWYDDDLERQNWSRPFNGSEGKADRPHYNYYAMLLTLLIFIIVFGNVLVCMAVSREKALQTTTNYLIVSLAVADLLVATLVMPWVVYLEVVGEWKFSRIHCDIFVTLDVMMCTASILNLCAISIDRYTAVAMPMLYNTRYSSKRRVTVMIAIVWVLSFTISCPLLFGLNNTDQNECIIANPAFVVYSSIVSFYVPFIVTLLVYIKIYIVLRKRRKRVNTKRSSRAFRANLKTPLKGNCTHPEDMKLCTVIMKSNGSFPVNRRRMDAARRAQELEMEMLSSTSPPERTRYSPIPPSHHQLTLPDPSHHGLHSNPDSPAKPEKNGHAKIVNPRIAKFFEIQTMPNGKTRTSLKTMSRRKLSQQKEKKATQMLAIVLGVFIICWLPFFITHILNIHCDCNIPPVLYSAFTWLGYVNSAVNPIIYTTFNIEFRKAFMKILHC

In turn, `COc1cc(N=[N+]=[N-])c(I)cc1C(=O)NC1CCN(Cc2ccccc2)CC1` [IODOAZIDOCLEBOPRIDE] gave a Kd of 14 nM.

The compound `CCN1CCC[C@H]1CNC(=O)c1c(OC)ccc(S(N)(=O)=O)c1I` [IODOSULPIRIDE] showed a Kd of 1.5 nM.
